{"source": "patent US20190388377A1", "about": "“COMPOSITIONS AND METHODS FOR THE TREATMENT OF LIVER DISEASES AND DISORDERS” (AXCELLA HEALTH INC., priority 2018, published 2019)", "key": {"Human CCL2 (MCP-1)": {"test_system": "Human CCL2 (MCP-1)", "test": "MCP1 secretion by ELISA after 24 h, PHH model for NASH, Example 2", "format": "cell-based", "details": "FFA+TNFα", "protocol": "(§1) PHH from two healthy human donors (Lonza, TRL) were seeded on day 0 at density of 6e04 cells in 96 well optical microplates (Thermofisher) in hepatocyte plating media (William's E medium, WEM) (Gibco) supplemented with 10% heat-inactivated FBS (Atlanta Bio), 2 mM Glutamax (Gibco), and 0.2% Primocin (InVivoGen) and incubated for 6 hours at 37° C., 5% CO2. After 6 hours, cells were washed twice and incubated overnight at 37° C., 5% CO2 with Hepatocytes defined medium (Corning) supplemented with 2 mM Glutamax (Gibco), and 1× Penicillin/Streptomycin. On day 1, cells were washed twice and incubated for 24 h in the hepatocyte culture media in the same conditions described above.\n(§2) On day 2, cells were washed twice with DPBS 1× (Gibco) to remove excess amino acids and maintained in pretreatment media (1×HMDB, a defined custom amino acid concentration based on the mean physiological concentrations in blood, in WEM±supplemental amino acids): • a. Amino acid-free WEM (US Biologicals) supplemented with 11 mM Glucose (Sigma), 0.272 mM Sodium Pyruvate (Sigma), 1× P/S (Gibco) and containing 1×HMDB with no supplemental amino acids; or • b. The same media described above 1×HMDB WEM with supplemental amino acid and amino acid combination treatments at various concentrations. Cells were maintained in the defined media (a. & b.) for 24 hours at 37° C., 5% CO2. The HMDB values are published in the Human Metabolome Database (Wishart D S, Tzur D, Knox C, et al., HMDB: the Human Metabolome Database. Nucleic Acids Res. 2007 January; 35 (Database issue):D521-6. 17202168; which is hereby incorporated by reference in its entirety). Co-Treatment with Free Fatty Acids and Amino Acids Combination\n(§3) After 24 h pre-treatment, cells maintained in the pretreatment media±supplemental amino acids (section (a. & b.) described above) were exposed to free fatty acids (FFA) at 250 uM with a ratio of 2:1 (Oleate:Palmitate) supplemented with TNF-α (Thermofisher) at 1 ng/ml. Cells were incubated with the FFAs mixture (FFAs+TNF-α)±supplemental amino acids treatments for 24 hours at 37° C., 5% CO2. After 24 hours incubation, media was removed for cytokine analysis and replaced by fresh media containing the same conditions described above (FFAs mixture±supplemental amino acids treatments). Cells were incubated for an additional 48 hours for a total of 72 hours of FFA and TNF-α stimulation. After 72 hours of incubation, media was removed for albumin and urea analysis and the cells were fixed for nuclei and lipid staining.\nHuman CCL2 (MCP-1) was measured by ELISA (Human […] DuoSet ELISA, R&D Systems) at 1/20 dilution in 1× Reagent Diluent (Reagent Ancillary Kit 2, R&D Systems). MCP1 data in primary human hepatocytes treated with FFA+TNFα+supplemental amino acids was normalized to 1×HMDB WEM+FFA+TNFα baseline. Data is reported as median fold change from control, statistical analysis was done using t-Test."}, "[1]": {"test_system": "primary human hepatocytes", "test": "Intracellular lipid accumulation after 72 h by fluorescence microscopy, PHH model for NASH, Example 2", "format": "cell-based", "details": "FFA+TNFα; for Lipid Median (median fold change from control): 72 h", "protocol": "as §1, §2, §3\nAfter 72 hours, cells were washed twice in 100 ul PBS 1× (Gibco), fixed with 4% Paraformaldehyde, and washed twice with PBS 1× (100 ul). After fixation, lipids were stained with HCS LipidTOX Red Neutral (Thermofisher Scientific) diluted 1000× and nuclei were stained with Hoechst 3342 (Life Technologies) diluted to 4 ug/ml. The LipidTOX™ neutral lipid stain has an extremely high affinity for neutral lipid droplets that was detected by fluorescence microscopy using a high content imager (Molecular Devices). Data was normalized to the cell concentration determined by nuclei count. Images were analyzed and total lipid area was calculated using granularity module in MetaXpress 6 software. Data is reported as median fold change from control, statistical analysis was done using t-Test."}, "Urea": {"test_system": "Urea", "test": "Urea production after 72 h by urea nitrogen (BUN) colorimetric assay, PHH model, Example 2", "format": "cell-based, human", "details": "FFA+TNFα", "protocol": "as §1, §2, §3\nUrea was measured as an indicator of hepatocytes functionality by urea nitrogen direct assay (StanBio). Cell supernatant was added to the BUN color reagent and BUN acid reagent at 1(color):2(acid) ratio. Incubate the cell supernatant with BUN reagent for 12 min at 100° C. then for 5 min at 4° C. Read absorbance at 520 nm. Data was normalized to the control. Data is reported as median fold change from control, statistical analysis was done using t-Test."}, "IL-6": {"test_system": "IL-6", "test": "IL-6 secretion by ELISA, LPS-treated primary human M1 macrophages, Example 5", "format": "cell-based", "protocol": "(§4) Primary human PMBC derived macrophages were seeded on day 0 at 3.0E4 cells per well in 96-well microplates (ThermoFisher) in Dulbecco's Modified Eagle Medium (DMEM) (Gibco) supplemented with penicillin-streptomycin (Hyclone) and 10% heat inactivated fetal bovine serum (HI-FBS) (Atlanta Bio) and incubated overnight at 37° C., 5% CO2. On day 1, cells were washed once with 150 uL per well DPBS (Gibco) and treated with 75 uL of: • a. Amino acid free DMEM (US Biologicals) containing a defined custom amino acid concentration based on the mean physiological concentrations in blood based on values published in the Human Metabolome Database (HMDB), with 6 mM glucose, 1 mM sodium pyruvate, 10 mM HEPES, 0.2% primocin (InVivoGen); or • b. The same media described above with supplemental amino acid and amino acid combination treatments at various concentrations. […]\n(§5) On day 3, the supernatant was collected and immediately frozen in −80° C. freezer. Cells were washed once with 150 uL DPBS and viability was assessed using the WST-8 Cell Proliferation Cytotoxicity Assay (Dojindo). […] Protein levels in supernatant samples were analyzed by ELISA for IL-6 and TNFa using commercially available kits (R&D Systems) according to manufacturer-supplied protocols."}, "TNFa": {"test_system": "TNFa", "test": "TNFa secretion by ELISA, LPS-treated primary human M1 macrophages, Example 5", "format": "cell-based", "protocol": "as §4, §5"}}}
{"smiles": "CC(=O)N[C@@H](CS)C(=O)O", "note": "[Nac, N-acetylcysteine]", "values": [{"measurement": "MCP1 secretion (in words)", "setting": "Human CCL2 (MCP-1); hepatocyte donor 1", "result": "reduced MCP1 secretion"}, {"measurement": "MCP1 secretion (in words)", "setting": "Human CCL2 (MCP-1); hepatocyte donor 2", "result": "reduced MCP1 secretion"}, {"measurement": "Lipid Median (median fold change from control)", "setting": "[1]; donor 1, 5 mM", "result": "−0.013"}, {"measurement": "Lipid Median (median fold change from control)", "setting": "[1]; donor 2, 7.5 mM", "result": "−0.359"}, {"measurement": "lipid accumulation (in words)", "setting": "[1]; hepatocyte donor 1", "result": "did not reduce lipid accumulation"}, {"measurement": "lipid accumulation (in words)", "setting": "[1]; hepatocyte donor 2", "result": "reduced lipid accumulation but less than the previously described combinations"}, {"measurement": "urea production (in words)", "setting": "Urea; hepatocyte donor 1", "result": "No changes in urea production"}, {"measurement": "urea production (in words)", "setting": "Urea; hepatocyte donor 2", "result": "slightly induce urea production"}, {"measurement": "LPS-stimulated IL-6 secretion (in words)", "setting": "IL-6", "result": "decreased LPS-stimulated IL-6 and TNFa secretion"}, {"measurement": "LPS-stimulated TNFa secretion (in words)", "setting": "TNFa", "result": "decreased LPS-stimulated IL-6 and TNFa secretion"}]}
